{"source": "patent US20220313662A1", "about": "“SUCCINATE DEHYDROGENASE INHIBITORS FOR BREAKING DORMANCY” (Valent BioSciences LLC, priority 2021, published 2022)", "assay_type_in_all_cases": "in vivo", "key": {"[1]": {"tested_on": "Concord grape vines", "assay": "Example 1: bud break and shoot weight of potted Concord grape vines in a greenhouse", "conditions": "for shoot weight, more than control / Shoot Weight: 41 days after treatment; for time to 50% bud break, faster than control: rates of Table 1: malonate 3,000 and 10,000 ppm, penthiopyrad 1,428 ppm, inpyrfluxam 486 ppm, pydiflumetofen 968 ppm", "experimental": "To assess the ability of SDHIs to promote and synchronize bud break and increase shoot weight, SDHIs were applied to shoots of potted 1 year old Concord grape vines grown in a greenhouse and examined for bud break (initiation of growth). Hydrogen cyanamide, malonate (malonic acid), inpyrfluxam, penthiopyrad and pydiflumetofen were each applied individually to the shoots of five potted concord grape rootstocks that were pruned to 5 nodes. Plants were evaluated for bud break periodically starting at 5 days after treatment. Plants were evaluated for shoot weight at 41 days after treatment."}, "[2]": {"tested_on": "Concord grape vines", "assay": "Example 2: bud break and shoot weight of potted Concord grape vines, single SDHIs and mixtures (OCE/ECE, Abbott method)", "conditions": "for Shoot Weight: 41 days after treatment", "experimental": "To assess the ability of SDHIs to promote and synchronize bud break and increase shoot weight, SDHIs were applied to shoots of 1 year old potted Concord grape vines grown in a greenhouse and examined for bud break (initiation of growth). Hydrogen cyanamide, malonate (malonic acid), inpyrfluxam, and mixtures of malonate and inpyrfluxam were each applied to the shoots of five potted concord grape rootstocks that were pruned to 5 nodes. Plants were evaluated for bud break periodically starting at 5 days after treatment. Plants were evaluated for shoot weight at 41 days after treatment.\nTo determine if the mixtures provided unexpected results, the observed combined efficacy (“OCE”) was divided by the expected combined efficacy (“ECE”) to give an OCE/ECE ratio wherein the expected ECE is calculated by the Abbott method: […]\nwherein ECE is the expected combined efficacy and in which A and B are the efficacy provided by the single active ingredients. If the ratio between the OCE of the mixture and the ECE of the mixture is greater than 1, then greater than expected interactions are present in the mixture. (Gisi, The American Phytopathological Society, 86:11, 1273-1279, 1996)."}, "[3]": {"tested_on": "Thompson seedless grapes", "assay": "Example 3: field trial, bud break and shoot growth of Thompson seedless grapes", "conditions": "10,000 ppm", "experimental": "Thompson seedless grapes were grown in the field in Kanoneiland, Northern Cape, South Africa during the 2021 growing season. Hydrogen cyanamide, malonate (malonic acid), and inpyrfluxam were each applied to the shoots of grape plants at 2 or 4 weeks before natural bud break. Plants were evaluated for bud break at 7 and 21 days after 1st bud break."}, "[4]": {"tested_on": "Thompson seedless grapes", "assay": "Example 3: field trial, bud break and shoot growth of Thompson seedless grapes", "set-up": "Shoot Growth: unit not given beside the values", "conditions": "for Shoot Growth (%) 1-5 cm / Shoot Growth (%) 5-10 cm / Shoot Growth (%) >10 cm / Shoot Growth / Bud Break % at 21 days after 1st bud break: 10,000 ppm; for Shoot Growth: equals sum of the three length classes"}, "[5]": {"conditions": "applied at 10,000 ppm to shoots"}, "[6]": {"conditions": "applied 2 weeks before natural bud break"}, "[7]": {"conditions": "applied 4 weeks before natural bud break"}, "[8]": {"conditions": "10,000 ppm (Table 4), 2 weeks before natural bud break"}, "[9]": {"conditions": "2 weeks before natural bud break"}, "[10]": {"conditions": "4 weeks before natural bud break"}}}
{"compound": "O=C(O)CC(=O)O", "note": "[Malonate, malonic acid]", "values": [{"measurement": "days to 100% bud break, faster than control", "setting": "[1]; 3,000 ppm", "result": 10, "unit": "%"}, {"measurement": "shoot weight, more than control", "setting": "[1]; 3,000 ppm", "result": 28, "unit": "%"}, {"measurement": "days to 100% bud break, faster than control", "setting": "[1]; 10,000 ppm", "result": 19, "unit": "%"}, {"measurement": "shoot weight, more than control", "setting": "[1]; 10,000 ppm", "result": 58, "unit": "%"}, {"measurement": "Days to 50% BB", "setting": "[1]; applied at 3,000 ppm to shoots", "result": 7, "unit": "days"}, {"measurement": "Days to 100% BB", "setting": "[1]; applied at 3,000 ppm to shoots", "result": 19, "unit": "days"}, {"measurement": "Shoot Weight", "setting": "[1]; applied at 3,000 ppm", "result": 41.75, "unit": "g"}, {"measurement": "Days to 50% BB", "setting": "[1]; [5]", "result": 7, "unit": "days"}, {"measurement": "Days to 100% BB", "setting": "[1]; [5]", "result": 17, "unit": "days"}, {"measurement": "Shoot Weight", "setting": "[1]; applied at 10,000 ppm", "result": 51.4, "unit": "g"}, {"measurement": "time to 50% bud break, faster than control", "setting": "[1]", "result": "about 40%"}, {"measurement": "time to 50% bud break, faster than control", "setting": "[2]; 1,000 ppm, 3,000 ppm and 10,000 ppm", "result": "about 4%"}, {"measurement": "time to 100% bud break, faster than control", "setting": "[2]; 10,000 ppm", "result": 25, "unit": "%"}, {"measurement": "Days to 50% BB", "setting": "[2]; applied at 300 ppm to shoots", "result": 25, "unit": "days"}, {"measurement": "Days to 100% BB", "setting": "[2]; applied at 300 ppm to shoots", "result": 20, "unit": "days"}, {"measurement": "Shoot Weight", "setting": "[2]; applied at 300 ppm", "result": 8.0, "unit": "g"}, {"measurement": "Days to 50% BB", "setting": "[2]; applied at 1,000 ppm to shoots", "result": 24, "unit": "days"}, {"measurement": "Days to 100% BB", "setting": "[2]; applied at 1,000 ppm to shoots", "result": 26, "unit": "days"}, {"measurement": "Shoot Weight", "setting": "[2]; applied at 1,000 ppm", "result": 8.8, "unit": "g"}, {"measurement": "Days to 50% BB", "setting": "[2]; applied at 3,000 ppm to shoots", "result": 24, "unit": "days"}, {"measurement": "Days to 100% BB", "setting": "[2]; applied at 3,000 ppm to shoots", "result": 17, "unit": "days"}, {"measurement": "Shoot Weight", "setting": "[2]; applied at 3,000 ppm", "result": 8.5, "unit": "g"}, {"measurement": "Days to 50% BB", "setting": "[2]; [5]", "result": 24, "unit": "days"}, {"measurement": "Days to 100% BB", "setting": "[2]; [5]", "result": 12, "unit": "days"}, {"measurement": "Shoot Weight", "setting": "[2]; applied at 10,000 ppm", "result": 7.9, "unit": "g"}, {"measurement": "Bud Break % at 7 days after 1st bud break", "setting": "[3]; [6]", "result": 33.7, "unit": "a %"}, {"measurement": "Bud Break % at 21 days after 1st bud break", "setting": "[3]; [6]", "result": "statistically significant increase over control"}, {"measurement": "Bud Break % at 7 days after 1st bud break", "setting": "[3]; [7]", "result": 29, "unit": "a %"}, {"measurement": "increase in shoot growth over Dormex", "setting": "[4]; [8]", "result": 11, "unit": "%"}, {"measurement": "increase in shoot growth over control", "setting": "[4]; [8]", "result": 44, "unit": "%"}, {"measurement": "increase in shoot growth over control", "setting": "[4]; 10,000 ppm (Table 4), 4 weeks before natural bud break", "result": 20, "unit": "%"}, {"measurement": "Shoot Growth (%) 1-5 cm", "setting": "[4]; [9]", "result": 23.3, "unit": "%"}, {"measurement": "Shoot Growth (%) 5-10 cm", "setting": "[4]; [9]", "result": 19.1, "unit": "%"}, {"measurement": "Shoot Growth (%) >10 cm", "setting": "[4]; [9]", "result": 32, "unit": "c %"}, {"measurement": "Shoot Growth", "setting": "[4]; [9]", "result": 74.5}, {"measurement": "Shoot Growth (%) 1-5 cm", "setting": "[4]; [10]", "result": 27.7, "unit": "%"}, {"measurement": "Shoot Growth (%) 5-10 cm", "setting": "[4]; [10]", "result": 17.8, "unit": "%"}, {"measurement": "Shoot Growth (%) >10 cm", "setting": "[4]; [10]", "result": 16.6, "unit": "b %"}, {"measurement": "Shoot Growth", "setting": "[4]; [10]", "result": 62}, {"measurement": "Bud Break % at 21 days after 1st bud break", "setting": "[4]; [6]", "result": 98.2, "unit": "ef %"}, {"measurement": "Bud Break % at 21 days after 1st bud break", "setting": "[4]; [7]", "result": 87.5, "unit": "cde %"}]}
{"compound": "CC(C)CC(C)c1sccc1NC(=O)c1cn(C)nc1C(F)(F)F", "note": "(centres unmarked) [Penthiopyrad, penthiopyrad]", "values": [{"measurement": "days to 100% bud break, faster than control", "setting": "[1]; 1,428 ppm (Table 1)", "result": 38, "unit": "%"}, {"measurement": "Days to 50% BB", "setting": "[1]; applied at 1,428 ppm to shoots", "result": 7, "unit": "days"}, {"measurement": "Days to 100% BB", "setting": "[1]; applied at 1,428 ppm to shoots", "result": 13, "unit": "days"}, {"measurement": "Shoot Weight", "setting": "[1]; applied at 1,428 ppm", "result": 29.4, "unit": "g"}, {"measurement": "time to 50% bud break, faster than control", "setting": "[1]", "result": "about 40%"}]}
{"compound": "CON(C(=O)c1cn(C)nc1C(F)F)C(C)Cc1c(Cl)cc(Cl)cc1Cl", "note": "(centres unmarked) [Pydiflumetofen, pydiflumetofen]", "values": [{"measurement": "Days to 50% BB", "setting": "[1]; applied at 968 ppm to shoots", "result": 9, "unit": "days"}, {"measurement": "Days to 100% BB", "setting": "[1]; applied at 968 ppm to shoots", "result": 26, "unit": "days"}, {"measurement": "Shoot Weight", "setting": "[1]; applied at 968 ppm", "result": 24, "unit": "g"}, {"measurement": "time to 50% bud break, faster than control", "setting": "[1]", "result": "about 25%"}]}
